Test results reported in paper PMC5218480 (PLoS ONE, 2017).

System: MV-4-11 cells
Assay: Gene expression microarray analysis (Affymetrix PrimeView) and GSEA
Assay type: cell-based, human
Conditions: gene C12orf56, chromosome 12 open reading frame 56; Azacitidine 1 mM; LIST F

Structure (SMILES): Nc1ncn([C@@H]2O[C@H](CO)[C@@H](O)[C@H]2O)c(=O)n1 [azacitidine]
- RFU, C12orf56 (ProbeSet 11735607_a_at): 185.59 RFU
